Experimental data reported in patent US20050234113A1, “Antioxidant and radical scavenging activity of synthetic analogs of desferrithiocin” (University of Florida Research Foundation, Inc., priority 2002, published 2005).
Several values for one entry are separate records, joined by “and”; a condition that tells them apart may be missing. Equal entries are not always repeated. Where two headings read alike, the source gives them in different places. Marks after values point to notes of the source that are not given here.

How the values were obtained:
iron = conditions: cited from earlier work
[1] = Quenching of the ABTS radical cation
[2] = 150 μmol/kg sc, suspension in water, n = 3
[3] = 300 μmol/kg po, in 40% Cremophor
[4] = Table 1, A734, six-minute reaction, pH 7.4, 1.25 to 15 μM
[5] = Table 3, A734, 6-min reaction, values marked b are the inventors' unpublished results
[6] = 150 μmol/kg po (footnote d: dose administered, 300 μmol/kg)

O=C(O)[C@H]1CSC(c2ccc(O)cc2O)=N1 [4′-(HO)-DADMDFT, 4′-hydroxydesazadesmethyldesferrithiocin]
% stool (of iron excreted), monkeys (iron; [2]): 92%
% urine (of iron excreted), monkeys (iron; [2]): 8%
efficiency in monkeys (%) (iron; [2]): 5.6±0.9% and 5.6 ± 0.9^f %
% stool (of iron excreted), monkeys (iron; [3]): 90%
% urine (of iron excreted), monkeys (iron; [3]): 10%
efficiency in monkeys (%) (iron; [3]): 5.3±1.7% and 5.3 ± 1.7^f %
Slope × 10^3 OD units/μM (ABTS radical cation quenching) [1, 4]: −101.6 × 10^3 OD units/μM
Slope × 10^3 OD units/μM (ABTS radical cation quenching) [1, 5]: −102^b × 10^3 OD units/μM

CC(=O)N(O)CCCCCNC(=O)CCC(=O)N(O)CCCCCNC(=O)CCC(=O)N(O)CCCCCN [DFO, Desferrioxamine B, reference compound]
% stool (of iron excreted), monkeys (iron; [6]): 55%
% urine (of iron excreted), monkeys (iron; [6]): 45%
efficiency in monkeys (%) (iron; [6]): 0.1±0.4% and 0.1 ± 0.4^d %
% stool (of iron excreted), monkeys (iron; 150 μmol/kg sc, n = 5): 45%
% urine (of iron excreted), monkeys (iron; 150 μmol/kg sc, n = 5): 55%
efficiency in monkeys (%) (iron; 150 μmol/kg sc, n = 5): 5.5±0.9%
Slope × 10^3 OD units/μM (ABTS radical cation quenching) [1, 4]: −136.8 × 10^3 OD units/μM
Slope × 10^3 OD units/μM (ABTS radical cation quenching) [1, 5]: −137^b × 10^3 OD units/μM
